Measured values from patent US20260132165A1, “MODIFIED NUCLEOSIDE ANALOGUE AND USE THEREOF, AND NUCLEOSIDE ANALOGUE-CONTAINING DOUBLE-STRANDED OLIGONUCLEOTIDE AND USE THEREOF” (RIGERNA THERAPEUTICS (BEIJING) CO., LTD., priority 2023, published 2026).
Strand notation (5' to 3'): a small letter for the sugar, then the base; units joined by * are phosphorothioate-linked, units joined directly phosphodiester-linked; [ ] holds rarer units or linkages, { } end groups; capitals alone tell only the bases. [Uhd] = commercial lipid-conjugated uridine analogue Uhd (C16), from Hongene, reference; {VP} = (thio)vinylphosphonate on the antisense 5' nucleotide, as listed; e = 2'-O-(2-methoxyethyl) (MOE); m = 2'-O-methyl; f = 2'-fluoro

Tests used:
target gene SOD1 [1] = assay: Test Example 9: inhibitory activity of lipid conjugated siRNA sequences on SOD1 in mouse muscle tissues; assay type: in vivo, C57BL/6j mice; settings: D14; for Diaphragm % Mean value of inhibition rate / Heart % Mean value of inhibition rate / Left quadriceps muscle % Mean value of inhibition rate: tail vein injection 5 mg/kg; for Left quadriceps muscle % Mean value of inhibition rate: left hind leg quadriceps muscle; for inhibitory activity compared with the NM200 conjugated reference sequence RZ899076: heart tissues; for inhibitory activity compared with the NM200 conjugated reference sequence RZ899076 / inhibitory action on the left quadriceps muscle and diaphragm: tail vein 5 mg/kg
Method: (§1) RNA extraction: the above tissue samples were taken out from the RNAlater, and smashed for 60 s in Tissuelyser type II full-automatic tissue homogenizer, and total RNAs of various tissue samples were extracted using the full-automatic nucleic acid extraction instrument and the nucleic acid extraction kit from Zhejiang Hanwei Science and Technology Co. Ltd. according to methods described in instructions.
(§2) Reverse transcription reaction: 1 μg of the extracted total RNAs of the tissue samples were taken, and configured into 20 μL of reverse transcription system according to a method described in kit instructions by using a reverse transcription kit (Reverse Transcription System, A3500) from Promega Corporation and selecting Oligo (dT)15 reverse transcription primers, and the reverse transcription reaction was completed. After the reaction was ended, 80 μL of RNase-Free water was added into the reverse transcription system to provide cDNA solution for Real-time PCR detection.
(§3) Real-time PCR detection: 20 μL of Real-time PCR reaction system per PCR detection well was configured according to a method described in kit instructions using SYBR™ Select Master Mix (Catalog number: 4472908) reagent from ABI company. Each detection system contained 5 μL of cDNA template obtained from the above reverse transcription reaction, 10 μL of SYBR™ Select Master Mix, 0.5 μL of 10 μM upstream primers, 0.5 μL of 10 μM downstream primers, and 4 μL of RNase-Free H2O. The configured reaction system was subjected to Real-time PCR amplification on ABI StepOnePlus PCR instrument by a three-step method, wherein an amplification procedure was pre-denaturation at 95° C. for 10 min, then denaturation at 95° C. for 30 s, annealing at 60° C. for 30 s, and extension at 72° C. for 30 s; and processes of denaturation, annealing, and extension were repeated for 40 cycles. Gene expression differences were calculated by the ΔΔCt method after completion of the procedure.
In the real-time fluorescence quantitative PCR method, relative quantitative calculation of remaining expression level and inhibition rate of gene mRNA of interest in various test groups was performed by the ΔΔCt method, and the calculation method is as follows:
The present test example evaluated, by an evaluation method for inhibitory activity on a target gene in mice, the inhibitory activity of siRNA sequence RZ899090 with the sense strand with the NM073 conjugation at Position 4, siRNA sequence RZ899091 with the sense strand with the NM074 conjugation at Position 4, siRNA sequence RZ899078 with the sense strand with the NM202 conjugation at Position 6 and siRNA reference sequence RZ899093 with the sense strand with the Uhd conjugation at Position 4, siRNA reference sequence RZ899076 with the sense strand with the NM200 conjugation at Position 4 on the target gene SOD1 of interest in muscle tissues in different parts of mice.
6-8 Week-old C57BL/6j mice were randomly grouped by body weight, 5 per group, 6 groups in total. Mice in each group were dosed with the above siRNA conjugates by tail vein injection, with an administration dose of 5 mg/kg per mouse, and an administration volume of 150 μL. PBS control group was administered with the same volume of siRNA conjugate-free PBS solution. The day of administration was recorded as D0, and 5 mice in each group were sacrificed on D14 after administration. Tissues such as left hind leg quadriceps muscle, diaphragm, and heart tissues were respectively taken and stored in the RNAlater. RNA extraction, reverse transcription, and real-time fluorescence quantitative detection were performed on various tissues according to the above method, and gene expression differences were calculated by the above ΔΔCt method.

target gene SOD1 [2] = assay: Test Example 4: lipid conjugated siRNA sequences with different carbon chain lengths, SOD1 in mouse brain, lateral ventricle administration; assay type: in vivo, C57BL/6j mice; design: Right hemisphere Mean value of inhibition rate / Left hemisphere Mean value of inhibition rate: unit not given here; settings: D5; for Left hemisphere Mean value of inhibition rate: left hemisphere (non-administration side); for Left hemisphere Mean value of inhibition rate / Right hemisphere Mean value of inhibition rate: lateral ventricle; for Left hemisphere Mean value of inhibition rate / Right hemisphere Mean value of inhibition rate / activity compared with Uhd conjugated reference sequence RZ899093 and NM200 (C22) conjugated reference sequence RZ899076: 150 μg per mouse; for Right hemisphere Mean value of inhibition rate: right hemisphere (administration side); for inhibitory activity compared with the vector-free siRNA sequence RX599002: left and right hemisphere, lateral ventricle 150 μg per mouse; for activity compared with Uhd conjugated reference sequence RZ899093 and NM200 (C22) conjugated reference sequence RZ899076: right hemisphere (administration side) and left hemisphere (non-administration side)
Method: 6-8 Week-old C57BL/6j mice were randomly grouped by body weight. Mice in each group were administered with siRNA by lateral ventricle administration, with an administration dose per mouse depending on a specific test. Taking Bregma in mouse brain as point 0 (origin), coordinates of right ventricle were found using the cerebral stereotaxic apparatus and position was marked on surface of skull (position of lateral ventricle was AP (anteroposterior, bregma anterior and posterior): −0.58 mm, ML (mediolateral, left and right of middle raphe): −1.2 mm, DV (dorsoventral, up and down cerebral dura mater plane): −2.2 mm). A dental electric drill was used to drill in the skull above a position of interest, and then medicament was injected into the lateral ventricle by a micro-dosing pump, wherein a total injection volume was 5 μL, and injection duration was 10 min. Needle was retained for 5 min after completion of injection, and then slowly withdrawn. Afterwards, needle hole was sealed with biomedical glue, and then head skin was adhered. After animals woke up, the animals were returned back to animal house and further fed. PBS control group was administered with the same volume of siRNA-free PBS solution. The day of administration was recorded as 0 day (D0), and the mice were sacrificed at observation point after the administration. Different parts of brain region were respectively taken and stored in the RNAlater.
as §1, §2, §3
In the real-time fluorescence quantitative PCR method, relative quantitative calculation of remaining expression level and inhibition rate of gene mRNA of interest in various test groups was performed by the ΔΔCt method, and the calculation method is as follows: […]

Substance	Diaphragm % Mean value of inhibition rate (target gene SOD1 [1])	Heart % Mean value of inhibition rate (target gene SOD1 [1])	Left quadriceps muscle % Mean value of inhibition rate (target gene SOD1 [1])	Left hemisphere Mean value of inhibition rate (target gene SOD1 [2])	Right hemisphere Mean value of inhibition rate (target gene SOD1 [2])	inhibitory activity compared with the NM200 conjugated reference sequence RZ899076 (target gene SOD1 [1])	inhibitory action on the left quadriceps muscle and diaphragm (target gene SOD1 [1])	inhibitory activity compared with the vector-free siRNA sequence RX599002 (target gene SOD1 [2])	activity compared with Uhd conjugated reference sequence RZ899093 and NM200 (C22) conjugated reference sequence RZ899076 (target gene SOD1 [2])
RZ899076: siRNA reference sequence with the sense strand with the NM200 (C22) conjugation at Position 4; SEQ ID NO: 18 / 24 (sense UUUNAAUCCUCACUCUAAA; antisense UUUAGAGUGAGGAUUAAAAUG; NM200 (C22) conjugate at sense position 4; modified_base 1..2 OTHER; 2'-methoxy and 5'-thiophosphate modified nucleotides; modified_base 3 OTHER; 2'-methoxy modified nucleotide; modified_base 4 OTHER; n is the synthetic nucleotide analog NM200 as described in the disclosure.; modified_base 5..6 OTHER; 2'-methoxy modified nucleotides; modified_base 7..10 OTHER; 2'-fluoro modified nucleotides; modified_base 11..19 OTHER; 2'-methoxy modified ; modified_base 1 OTHER; 2'-methoxy and 5'-thiovinylphosphonate modified nucleotide; modified_base 2 OTHER; 2'-fluoro and 5'-thiophosphate modified …) [reference compound]	74.58%	51.69%	60.97%	65.25	79.02	–	–	–	–
RZ899090: siRNA sequence with the sense strand with the NM073 (C18) conjugation at Position 4; SEQ ID NO: 15 / 23 (sense UUUNAAUCCUCACUCUAAA; antisense UUUAGAGUGAGGAUUAAAAUG; NM073 (C18) conjugate at sense position 4; modified_base 1..2 OTHER; 2'-methoxy and 5'-thiophosphate modified nucleotides; modified_base 3 OTHER; 2'-methoxy modified nucleotide; modified_base 4 OTHER; n is the nucleotide analog NM073 as described in the disclosure.; modified_base 5..6 OTHER; 2'-methoxy modified nucleotides; modified_base 7..10 OTHER; 2'-fluoro modified nucleotides; modified_base 11..19 OTHER; modified_base 1 OTHER; 2'-methoxy and 5'-thiovinylphosphonate modified nucleotide; modified_base 2 OTHER; 2'-fluoro and 5'-thiophosphate modified nucleotide; modified_base 3..5 OTHER; …)	43.77%	67.88%	33.16%	67.87	78.49	superior inhibitory activity	certain inhibitory action	superior inhibitory activity	substantially comparable or superior activity
RZ899093: siRNA reference sequence with the sense strand with the Uhd (C16) conjugation at Position 4; SEQ ID NO: 13 / 23 (sense mU*mU*mU[Uhd]mAmAfUfCfCfUmCmAmCmUmCmUmAmAmA; antisense {VP}-mU*fU*mUmAmGfAmGmUmGmAmGfGmAfUeUfAmAmAmA*mU*mG) [reference compound]	64.76%	51.52%	56.55%	70.23	80.47	–	–	–	–
RZ899091: siRNA sequence with the sense strand with the NM074 (C20) conjugation at Position 4; SEQ ID NO: 16 / 23 (sense UUUNAAUCCUCACUCUAAA; antisense UUUAGAGUGAGGAUUAAAAUG; NM074 (C20) conjugate at sense position 4; modified_base 1..2 OTHER; 2'-methoxy and 5'-thiophosphate modified nucleotides; modified_base 3 OTHER; 2'-methoxy modified nucleotide; modified_base 4 OTHER; n is the synthetic nucleotide analog NM074 as described in the disclosure.; modified_base 5..6 OTHER; 2'-methoxy modified nucleotides; modified_base 7..10 OTHER; 2'-fluoro modified nucleotides; modified_base 11..19 OTHER; 2'-methoxy modified ; modified_base 1 OTHER; 2'-methoxy and 5'-thiovinylphosphonate modified nucleotide; modified_base 2 OTHER; 2'-fluoro and 5'-thiophosphate modified …)	39.22%	76.73%	33.02%	70.41	82.32	superior inhibitory activity	certain inhibitory action	superior inhibitory activity	substantially comparable or superior activity
